In paper PMC6930522, “Structure-Based Pharmacophore Modeling, Virtual Screening, Molecular Docking and Biological Evaluation for Identification of Potential Poly (ADP-Ribose) Polymerase-1 (PARP-1) Inhibitors” (Molecules, 2019):
Like-named read-outs stand apart in the source and are kept apart here.

Assays:
PARP-2 = target: T1, PARP-2 (Homo sapiens, UniProt Q9UGN5); assay: In vitro PARP inhibition assay (PARP-2); assay type: biochemical
T1 construct: purchased Trevigan (Gaithersburg, MD, USA)
Protocol: (§1) Purified recombinant human PARPs from Trevigan (Gaithersburg, MD, USA) was used to determine the IC50 values of a PARP inhibitor. The PARP enzyme assay was set up on ice in a volume of 100 μL consisting of 50 mM Tris–HCl (pH 8.0), 2 mM MgCl2, 30 μg/mL of DNase activated herring sperm DNA (Sigma, MO, USA), 30 μM [^3H]nicotinamide adenine dinucleotide (67 mCi/mmol), 75 μg/mL PARP enzyme and various concentrations of the compounds to be tested. The reaction was initiated by incubating the mixture at 25 °C. After 15 min of incubation, the reaction was terminated by adding 500 μL of ice cold 20% (w/v) trichloroacetic acid. The formed precipitate was transferred onto a glass fiber filter (Packard Unifilter–GF/B) and washed three times with ethanol. After the filter is dried, the radioactivity is determined by scintillation counting.

[1] = test system: human lung cancer A549 cells; assay: MTT assay, proliferation of A549 cells; assay type: cell-based; conditions: 48 h, different concentrations, Figure 5
Protocol: A549 cells were seeded in a 96-well culture plate and allowed to grow overnight. Then, cells were exposed to different concentrations of compounds 1–4 and incubated at 37 °C for 48 h. After that, an MTT stock solution (0.5 mg/mL) was added into each well and the plate was incubated for 4 h. The 150 µL of DMSO was used for fixing the MTT-treated cells and the absorbance of each sample was recorded at 490 nm with a Microplate Spectrophotometer.

PARP-3 = target: T2, PARP-3 (Homo sapiens, UniProt Q9Y6F1); assay: In vitro PARP inhibition assay (PARP-3); assay type: biochemical; conditions: Table 4
T2 construct: purchased Trevigan (Gaithersburg, MD, USA)
T2 sequence (Q9Y6F1 1-533): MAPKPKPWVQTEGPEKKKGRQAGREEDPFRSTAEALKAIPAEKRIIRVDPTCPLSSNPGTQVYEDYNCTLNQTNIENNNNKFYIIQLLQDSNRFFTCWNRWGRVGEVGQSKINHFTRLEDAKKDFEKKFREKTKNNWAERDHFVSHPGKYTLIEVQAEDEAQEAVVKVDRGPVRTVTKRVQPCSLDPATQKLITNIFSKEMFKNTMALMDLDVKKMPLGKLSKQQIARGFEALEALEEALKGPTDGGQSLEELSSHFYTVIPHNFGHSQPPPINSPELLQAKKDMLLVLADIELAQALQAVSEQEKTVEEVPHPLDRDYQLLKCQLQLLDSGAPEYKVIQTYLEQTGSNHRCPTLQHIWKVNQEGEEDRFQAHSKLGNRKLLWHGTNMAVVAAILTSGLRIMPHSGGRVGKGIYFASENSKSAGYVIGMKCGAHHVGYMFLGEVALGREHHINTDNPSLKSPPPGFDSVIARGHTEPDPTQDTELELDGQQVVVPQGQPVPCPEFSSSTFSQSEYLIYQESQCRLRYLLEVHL
Protocol: as §1

PARP-1 = target: T3, PARP-1 (Homo sapiens, UniProt P09874); assay: In vitro PARP inhibition assay (PARP-1); assay type: biochemical; conditions: Table 3; PARP-1 enzyme assay, mean ± SD, three independent experiments
T3 construct: purchased Trevigan (Gaithersburg, MD, USA)
Protocol: as §1

T1 sequence (Q9UGN5 whole entry): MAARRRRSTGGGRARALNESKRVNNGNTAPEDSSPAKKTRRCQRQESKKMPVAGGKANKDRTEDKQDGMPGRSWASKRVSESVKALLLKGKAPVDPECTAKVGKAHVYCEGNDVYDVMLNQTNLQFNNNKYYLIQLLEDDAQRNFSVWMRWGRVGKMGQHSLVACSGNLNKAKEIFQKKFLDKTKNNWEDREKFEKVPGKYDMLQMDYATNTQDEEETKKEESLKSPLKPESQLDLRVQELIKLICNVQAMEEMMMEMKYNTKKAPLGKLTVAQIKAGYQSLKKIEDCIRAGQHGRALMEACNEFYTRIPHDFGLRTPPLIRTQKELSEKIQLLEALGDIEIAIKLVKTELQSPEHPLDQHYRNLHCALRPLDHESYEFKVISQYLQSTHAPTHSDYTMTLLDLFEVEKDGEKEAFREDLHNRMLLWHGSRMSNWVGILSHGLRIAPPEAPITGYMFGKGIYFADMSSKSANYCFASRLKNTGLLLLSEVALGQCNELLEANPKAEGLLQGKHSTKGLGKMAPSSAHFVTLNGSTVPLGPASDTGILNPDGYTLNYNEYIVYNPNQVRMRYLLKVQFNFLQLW
T3 sequence (P09874 whole entry): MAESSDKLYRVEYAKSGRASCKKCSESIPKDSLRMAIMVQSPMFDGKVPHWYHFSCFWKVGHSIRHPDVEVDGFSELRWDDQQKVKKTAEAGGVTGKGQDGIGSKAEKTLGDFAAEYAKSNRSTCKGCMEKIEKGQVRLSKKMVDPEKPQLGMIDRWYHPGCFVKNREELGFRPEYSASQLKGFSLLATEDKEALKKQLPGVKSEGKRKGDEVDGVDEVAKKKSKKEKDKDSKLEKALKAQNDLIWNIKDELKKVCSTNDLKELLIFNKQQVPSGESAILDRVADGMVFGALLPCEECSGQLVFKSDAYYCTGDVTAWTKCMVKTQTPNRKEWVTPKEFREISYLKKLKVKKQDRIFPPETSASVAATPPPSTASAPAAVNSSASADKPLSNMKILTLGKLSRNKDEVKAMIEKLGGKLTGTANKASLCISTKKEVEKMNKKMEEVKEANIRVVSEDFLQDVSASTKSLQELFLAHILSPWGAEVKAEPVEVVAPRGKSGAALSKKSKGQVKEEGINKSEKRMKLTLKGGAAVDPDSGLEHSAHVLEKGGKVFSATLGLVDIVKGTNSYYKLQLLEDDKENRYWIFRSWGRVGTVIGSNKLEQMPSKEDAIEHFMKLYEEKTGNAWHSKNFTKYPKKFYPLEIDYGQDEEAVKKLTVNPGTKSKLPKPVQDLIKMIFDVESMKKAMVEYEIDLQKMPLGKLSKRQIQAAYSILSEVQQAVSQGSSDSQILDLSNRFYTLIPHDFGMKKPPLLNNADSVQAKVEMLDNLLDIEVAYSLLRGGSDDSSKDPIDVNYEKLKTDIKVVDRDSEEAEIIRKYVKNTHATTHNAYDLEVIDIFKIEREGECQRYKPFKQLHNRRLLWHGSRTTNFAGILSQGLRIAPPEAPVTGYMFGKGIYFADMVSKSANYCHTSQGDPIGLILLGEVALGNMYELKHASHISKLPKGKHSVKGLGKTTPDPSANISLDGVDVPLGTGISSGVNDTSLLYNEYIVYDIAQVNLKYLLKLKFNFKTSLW

Structure (SMILES) | IC50 (PARP-1) [nM] | IC50 (PARP-2) [nM] | Inhibition of growth/proliferation of A549 cells [1] | IC50 (PARP-3) [nM] | IC50 (PARP-2; Table 4, read-out: PARP-2) [nM] | PARP-2/PARP-1 (PARP-2; selectivity ratio of IC50 values)
NC(=O)c1cccc2c1C(=O)N(C1CCN(Cc3ccc(F)cc3)CC1)C2 [Compound 1] |  | > 35000 | stronger anti-proliferation effects than compounds 2 and 3 | > 100000 |  | 
CCc1ccc(-c2nc3cccc4c3n2CCNC4=O)cc1 [Compound 4] | 65 ± 8 |  | stronger anti-proliferation effects than compounds 2 and 3 | > 100000 | > 35000 | >1000
CC(=O)Nc1cccc(Cn2c(=O)[nH]c(=O)c3ccccc32)c1 [Compound 3] | 160 ± 13 |  |  |  |  | 

The next lines start with results.

IC50 (PARP-1) [nM] | Structure (SMILES) | IC50 (PARP-2) [nM] | Inhibition of growth/proliferation of A549 cells [1] | IC50 (PARP-3) [nM] | IC50 (PARP-2; Table 4, read-out: PARP-2) [nM] | PARP-2/PARP-1 (PARP-2; selectivity ratio of IC50 values)
190 ± 26 | CN(C)CCNc1ccc2[nH]c(=O)c3ccccc3c2n1 [Compound 2] |  |  |  |  | 
400 ± 35 | Cc1nc2c(O)cccc2c(=O)[nH]1 [NU1025, reference compound] |  |  |  |  | 
